Drawing on a melting point compilation (Tetko et al.; mined from patent text by program, amines drawn as free bases though some values may be those of a salt), this text covers melting point for 60 compounds.

Structures are written as SMILES.

A word on the melting point: it is the temperature of the solid-liquid transition.

Compound `COc1ccc(/C=C/c2nc3c([nH]2)c(=O)n(C)c(=O)n3C)c(OC)c1OC` had a melting point of 265 to 266 °C.

Take `Cc1cc2cc(N=[N+]=[N-])ccc2[nH]1`: the melting point is 57 to 60 °C.

`Cc1cccc2c1N(CC(=O)c1cccc([N+](=O)[O-])c1)C(=O)C(NC(=O)Nc1cccc(-c3nnn[nH]3)c1)N=C2c1ccccc1F` (stereo not given) showed a melting point of 194 to 198 °C.

For `O=c1c2cn(S(=O)(=O)CCCCl)nc2n(CC2CC2)c(=O)n1CC1CC1`, the melting point is 95 to 97 °C.

Regarding `CC(C)c1cccc(C(C)C)c1NC(=O)N(C(C)C)C1COc2ccccc2C1` (stereo not given), the melting point lay in the range of 169 to 172 °C.

In turn, `CC(=O)CN(C(=O)Cc1ccccc1)C(C)(C)c1cccc(Cl)c1` registered a melting point of 98 to 100 °C.

In the case of `O=C(NN1CCN(C(=O)C=Cc2ccccc2)CC1)c1ccc(F)cc1`, the melting point lay in the range of 235 to 240 °C.

In turn, `COc1cc2c(cc1OC)-c1[nH]c3ccc(O)cc3c1C2=O` displayed a melting point above 260 °C.

Consider `CN(c1cccc2cc(C3=NCC(C)(CN)S3)[nH]c12)S(=O)(=O)c1cccs1` (stereo not given), for which the melting point was 164 to 165 °C.

Consider `CC(=O)Nc1nc(C)c(S(=O)(=O)NCCO)s1`, for which the melting point worked out at 211 °C.

In turn, `N=C(N)Nc1nc(-c2csc(N)n2)cs1` came in with a melting point of 274 °C.

In turn, `O=C(O)C(Cc1ccccc1)Oc1ccc2cc(-c3oc4ccccc4c3Br)ccc2c1Br` (stereo not given) yielded a melting point of 206 to 209 °C.

Compound `CC(C)(C)[C@H]1N(c2ccc(C#N)c3ccccc23)C(=O)[C@@H]2C[C@@H](O)CN21` came in with a melting point of 155 to 157 °C.

As for `Nc1nc2[nH]c(CCCc3cc(C(=O)N[C@@H](CCC(=O)O)C(=O)O)cs3)cc2c(=O)[nH]1`, the melting point is 191 to 192 °C.

In the case of `CCOC(=O)C1(C(=O)OCC)CCC2(CC1)NCCc1cc(O)c(O)cc12`, the melting point was in the range of 180 to 181 °C.

Turning to `CCN1c2ncc(CCc3cccc(N)c3)cc2C(=O)N(C)c2ccc(Cl)nc21`, the melting point is 121 to 123 °C.

Turning to `Cc1cnc(N2CCC(c3ccc([N+](=O)[O-])cc3)CC2)n1C`, the melting point was 178 to 179 °C.

With `O=Cc1ccc(OCc2cn(C(c3ccccc3)(c3ccccc3)c3ccccc3)cn2)cc1`, the melting point is 181 to 182 °C.

Compound `O=C(N[C@H]1CC[C@H](CCN2CCN(c3nccc4c3CCO4)CC2)CC1)c1ccc(Cl)cc1Cl` displayed a melting point of 204 °C.

`Cc1cc(C)c2c(n1)N(CCN1CCOCC1)c1ccccc1N(C)C2=O` displayed a melting point of 133 to 135 °C.

Take `CCC(C)(C)c1cc(C(=O)COc2ccc(C=O)cc2OC)cc(C(C)(C)CC)c1O`: the melting point lay within 106 to 107 °C.

The compound `CCC(Nc1ncnc2[nH]cnc12)c1oc2cccc(F)c2c(=O)c1-c1ccccc1` (stereo not given) displayed a melting point of 210 to 212 °C.

For the compound `CC=C(C(=O)OC(c1ccccc1)c1ccccc1)N1C(=O)[C@@H]2N=C(Cc3ccccc3)O[C@@H]21`, the melting point lay in the range of 104 to 106 °C.

In turn, `O=C(O)C1=Cc2cc(Cl)ccc2N(Cc2ccc(C(F)(F)F)cc2)C1C(F)(F)F` (stereo not given) registered a melting point of 229 to 231 °C.

As for `C[C@@H](N1CCN(C(=O)c2ccc(F)cc2F)CC1)[C@](O)(Cn1cncn1)c1ccc(F)cc1F`, the melting point was 63 to 65 °C.

`CC(C)(C)Sc1c(CC(C)(C)C(=O)O)n(Cc2ccc(Cl)cc2)c2ccc(OCc3cccs3)cc12`: the melting point fell in the range of 204 to 205 °C.

For the compound `COc1ccc(CC(C#N)c2cc(OC)c(OC)c(OC)c2)cc1` (stereo not given), the melting point was 82 to 83 °C.

Take `CCn1c2ccc(C(=O)CC(C)=O)cc2c2cc(C(=O)c3ccc(F)cc3C)ccc21`: the melting point stood at 132 °C.

`COC(=O)c1ccc(OCCON=C(C)c2ccc(C(C)(C)C)cc2)cc1O` registered a melting point of 65.4 to 66.8 °C.

The compound `COc1cccc(NC(C)=O)c1` displayed a melting point of 81 to 82 °C.

`O=[N+]([O-])c1c(O)c(O)cc2ccccc12` gave a melting point of 141 to 143 °C.

`CC(=O)N1C2=NC(C)(C)N(C)C(=O)N2c2ccccc21` yielded a melting point of 159 to 162 °C.

For the compound `N#Cc1cc(C(F)(F)F)[nH]c1-c1ccsc1Br`, the melting point came out at 170 °C.

`CCCCC(=O)Nc1ncc([N+](=O)[O-])s1`: the melting point was 155 to 156 °C.

The compound `CCOc1ccccc1C(O)c1cc(Cl)ccc1N` (stereo not given) came in with a melting point of 80 to 81 °C.

As to `CC(=O)OCCSc1nc(C(C)(C)C)nn1C(=O)N(C)C`, the melting point lay within 110 to 112 °C.

For the compound `O=C(Nc1ccc(-n2nc(C(F)(F)F)cc2C(F)(F)F)cc1-n1nc(C(F)(F)F)cc1C(F)(F)F)c1ccc(F)cc1F`, the melting point was 114 to 115 °C.

Turning to `COc1ccc(CCc2nnc(-c3ccc4[nH]ncc4c3)o2)cc1C(F)(F)F`, the melting point was in the range of 192 to 193 °C.

The compound `OCC1Cc2cc(Cl)cc(C3CCCCC3)c2O1` (stereo not given) gave a melting point of 67 to 69 °C.

`N#CC1CN1C(=O)NC(=O)C=Cc1ccccc1` (stereo not given): the melting point lay in the range of 134 to 136 °C.

Take `COC(=O)c1ccc(C(O)c2c(C)c3cc(C(F)(F)F)ccc3n2S(=O)(=O)c2cccc(C(C)(C)C)c2)cc1` (stereo not given): the melting point was 65 °C.

In the case of `CCc1nc2c(N)nc3ccccc3c2n1CCOCCNS(C)(=O)=O`, the melting point is 169 to 171 °C.

Regarding `CS(=O)(=O)c1ccc(/C(=C(\CCO)C(=O)O)c2ccc(Cl)cc2)cc1`, the melting point fell in the range of 144 to 145 °C.

The compound `O=C(O)CSc1nc(-n2cc(C3c4ccccc4C=Cc4ccccc43)c(=S)[nH]c2=O)ncc1-c1ccc(CC(=O)O)cc1` yielded a melting point of 280 °C.

Compound `COc1cc(OC)c2c(=O)[nH]c(-c3ccc(OCC[N+]4([O-])CCCC4)c(-c4ccc(S(C)(=O)=O)cc4)n3)nc2c1` came in with a melting point of 167 to 170 °C.

Compound `CCOC(=O)CCC(C=Cc1ccc(OC)c(OC)c1)=C1SC(=S)NC1=O` had a melting point of 178 to 180 °C.

As to `CNC1=Nc2ccsc2C(c2ccccc2)=NC1`, the melting point lay in the range of 223 to 227 °C.

`O=C(Nc1n[nH]c(=S)s1)NC(Cc1ccccc1)C(=O)NCCN1CCOCC1` (stereo not given) had a melting point of 165 to 167 °C.

In turn, `C=CC(=O)c1ccc([N+](=O)[O-])cc1` had a melting point of 89 to 90 °C.

With `C(#COCC1CCN(Cc2ccccc2)CC1)Cc1ccccc1`, the melting point lay in the range of 120 to 123 °C.

In turn, `CCn1nccc1C(=O)Nc1cc(Oc2ccc3nc(NC(=O)C4CC4)cn3n2)ccc1F` displayed a melting point of 209 °C.

As for `Cc1ccccc1NC(=O)Nc1ccc(C(=O)N2Cc3cccn3Cc3ccccc32)cc1`, the melting point lay in the range of 155 to 158 °C.

`O=C(/C=C/c1c[nH]c2ccc(O)cc12)c1ccncc1` gave a melting point of 262 to 268 °C.

Turning to `FC(F)(F)c1cnc(Cc2ccc(Cl)cc2)c(Cl)c1`, the melting point was 54 to 56 °C.

For `CC(=O)Nc1cc2c(cc1[N+](=O)[O-])[C@@H](O)[C@H](Br)C(C)(C)O2` (relative stereo), the melting point was in the range of 205 to 206 °C.

`CC(C)Cn1c(-c2c(F)cccc2F)c(Cl)nc(-n2cccn2)c1=O` had a melting point of 118 to 119 °C.

Compound `CCC1=C(C#N)C(c2ccccc2Cl)c2c[nH]nc2N1` (stereo not given) displayed a melting point above 300 °C.

Compound `COC(=O)CCCc1cc2cc(Cl)ccc2n1S(=O)(=O)c1ccc2ccccc2c1` came in with a melting point of 116 to 118 °C.

`CN(C(=O)Nc1ccccc1CCc1cc(C(C)(C)C)c(O)c(C(C)(C)C)c1)C1CCN(Cc2ccc(F)cc2)CC1`: the melting point lay within 177 to 178 °C.

Regarding `CN(OCc1ccccc1)C(=O)Nc1cccc(S(C)(=O)=O)c1`, the melting point is 110 to 111 °C.
